The record followed here is ChEMBL document CHEMBL4765294, “Discovery and evaluation of new compounds targeting ribosomal protein S1 in antibiotic-resistant Mycobacterium Tuberculosis” (Eur J Med Chem, 2020).

Molecules are shown by their SMILES. Active and inactive are the calls of the source. No cut-off for these calls is given here.

Experiment [1] has as its system Mycobacterium tuberculosis. Put plainly: Binding affinity to Mycobacterium tuberculosis RpsA C-terminal domain (285 to 476 residues) assessed as quenching rate constant by fluorescence quenching titration based analysis.
In experiment [2] the test system is Mycobacterium tuberculosis. The experiment is described as follows: Binding affinity to Mycobacterium tuberculosis 15N-labelled wild type RpsA (280 to 438 residues) by chemical shift perturbation based 15N-1H HSQC spectral analysis.
The nature of experiment [3]: Binding affinity to Mycobacterium tuberculosis RpsA C-terminal domain (285 to 476 residues) assessed as dissociation constant by fluorescence quenching titration based analysis.
The test system of experiment [4] is Mycobacterium tuberculosis. The experiment is described as follows: Binding affinity to Mycobacterium tuberculosis RpsA C-terminal domain (285 to 476 residues) at 500 uM by STD based analysis.

By Kd is commonly meant the equilibrium constant for the complex coming apart. `Cc1ccc(CNC(=O)COc2cc(O)c3c(=O)cc(-c4ccccc4)oc3c2)cc1`: the Kq in experiment [1] is 6.45 10^12/M/s. The outcome in experiment [2] and in experiment [4] was Active. For the same compound, the Kd in experiment [3] was found to be 3.24 µM.

On to `O=C(O)c1cnccn1` [PYRAZINOIC ACID], for which the Kq in experiment [1] is 8.22 10^11/M/s. In experiment [3], the Kd was found to be 9.65 µM.

Turning to `Cc1cccc(CNC(=O)CSc2nc3nc[nH]c3c(=O)[nH]2)c1`, the Kq in experiment [1] is 3.75 10^12/M/s. The result in experiment [2] and in experiment [4] was Active. For the same compound, in experiment [3], the dissociation constant (Kd) was 2.67 µM.

As to `CC(Sc1nc(N)cc(N)n1)C(=O)O` (configuration not stated), in experiment [3], the Kd was 2.67 µM.

With `O=C(O)CSc1nc2nc[nH]c2c(=O)[nH]1`, the Kq in experiment [1] is 1.79 10^12/M/s. Also, the outcome in experiment [2] and in experiment [4] was Active. Moreover, in experiment [3], the Kd was found to be 6.35 µM.

Take `Cc1ccc(CNC(=O)CSc2nc3nc[nH]c3c(=O)[nH]2)cc1`: in experiment [1], the Kq is 4.09 10^12/M/s. The result in experiment [2] and in experiment [4] was Active. Also, the Kd in experiment [3] is 7.61 µM.

`Cc1cccc(CNC(=O)COc2cc(O)c3c(=O)cc(-c4ccccc4)oc3c2)c1`: in experiment [1], the Kq was 1.94 10^12/M/s. Moreover, the outcome in experiment [2] and in experiment [4] was Active. For the same compound, the Kd in experiment [3] was determined as 5.66 µM.

Turning to `CCOC(=O)CSc1nc2nc[nH]c2c(=O)[nH]1`, the Kq in experiment [1] is 3.37 10^12/M/s. For the same compound, the outcome in experiment [2] and in experiment [4] was Active. Further, the Kd in experiment [3] amounted to 0.81 µM.
